Measurements: US9907479B2, “Contribution of oxidative stress to AF electrograms” (NORTHWESTERN UNIVERSITY, priority 2013, dated 2018)

How the values were obtained:
[1] = test system: AF EGMs in HF; assay: Acute ROS blockade during induced AF in pacing-induced HF dogs, epicardial AF EGM mapping; type: in vivo, dog; conditions: for effect on AF EGM parameters (DF, OI, FI, ShEn): apocynin 10 mg/kg
Experimental: HF: In 4 animals, rapid RV pacing was performed at 240 beats/min for 3-4 weeks to induce HF. AF was then induced and AF EGMs recorded by an epicardial, multielectrode plaque (130 electrodes; […]). Apocynin (an NAPDH oxidase inhibitor) was then given (10 mg/kg) acutely. After apocynin administration, AF slowed and then terminated within 5 minutes (in every experiment). […] After apocynin washout (90 minutes), AF was re-induced and mito-TEMPO was given (0.7 mg/kg). […] The atrial tissue was then removed and examined for O^2- generation using lucigenin chemiluminescence. […] Thus, AF EGMs in HF are very sensitive to acute blockade of NADPH oxidase and mitochondrial ROS and AF EGM organization in response to ROS blockade closely correlates with the amount of O^2- in underlying tissue.

[2] = test system: AF EGMs in a RAP model; assay: Acute ROS blockade in rapid atrial pacing (RAP) persistent AF model, AF EGM mapping; type: in vivo, dog
Experimental: RAP: In 2 animals, rapid atrial pacing was performed at 600 bpm for 3-4 weeks to induce persistent AF. Apocynin was given as in HF above.

[3] = test system: AF EGMs in HF; assay: EGM-guided targeted gene injection at ROS responsive PLA quadrant in HF dog, AF EGM mapping; type: in vivo; conditions: one HF dog, given during AF, 10 mg/kg, before gene injection
Experimental: In one dog, HF was induced by RV pacing at 240 bpm×3 weeks. AF was then induced and recorded in the PLA by high density epicardial plaques (130 electrodes; […]). […] Real time analysis of AF EGMs was performed. The PLA was divided into 4 equal quadrants as shown in FIG. 15A and AF characteristics analyzed for each quadrant. […] One week later, AF mapping was performed again, in the absence and presence of apocynin. […] NOX2 expression (assessed by RT-PCR) was 70% lower in the injected quadrant than in neighboring, un-injected PLA.

[4] = HF dogs, induced AF, mito-TEMPO 0.7 mg/kg
[5] = RAP dogs (600 bpm, 3-4 weeks), persistent AF, apocynin given as in HF

| Structure (SMILES) | effect on AF (slowing, termination) ([1]; HF dogs, AF re-induced after apocynin washout (90 minutes), mito-TEMPO 0.7 mg/kg) | effect on AF EGM parameters (DF, OI, FI, ShEn) [1, 4] | time to AF termination after administration ([1]; HF dogs (RV pacing 240 beats/min, 3-4 weeks), induced AF, 10 mg/kg given acutely, in every experiment) | change in DF [2, 5] | change in OI [2, 5] | termination of AF ([2]; RAP dogs, 2 animals) | effect on AF [3] |
| --- | --- | --- | --- | --- | --- | --- | --- |
| CC1(C)CC(NC(=O)C[P+](c2ccccc2)(c2ccccc2)c2ccccc2)CC(C)(C)N1[O] [mito-TEMPO] | gradual slowing and termination of AF in every animal | organization of all AF EGM parameters | – | – | – | – | – |
| COc1cc(C(C)=O)ccc1O [apocynin, Apocynin] | – | organization of all AF EGM parameters | ≤ 5 min | significant decrease | increase | In one animal, there was termination of AF | organization of AF followed by AF termination |
